Experimental data taken from patent US7468368B2, “Piperazinylacylpiperidine derivatives, their preparation and therapeutic use thereof” (Sanofi Aventis, priority 2002, dated 2008).
Where a name gives a salt, the structure may show the parent alone.

Row | Compound | melting point [°C]
1 | CC(C)N(C)CC1(c2cccc(C(F)(F)F)c2)CCN(C(=O)CN2CCN(c3cnccn3)CC2)CC1.Cl.Cl.Cl | 185 to 200
2 | COc1cccc(C2(CN)CCN(C(=O)CN3CCN(c4cnccn4)CC3)CC2)c1.O=C(O)C(=O)O.O=C(O)C(=O)O | 120
3 | O=C(CN1CCN(c2ccncn2)CC1)N1CC=C(c2cccc(C(F)(F)F)c2)CC1 (as salt: oxalate) [Compound No. 27, 2-[4-(4-Pyrimidinyl)-1-piperazinyl]-1-[4-[3-(trifluoromethyl)phenyl]-3,6-dihydro-1(2H)-pyridyl]-1-ethanone dioxalate] | 160
4 | NCC1(c2cccc(C(F)(F)F)c2)CCN(C(=O)CN2CCN(c3cnccn3)CC2)CC1 [Compound No. 4, 1-[4-(Aminomethyl)-4-[3-(trifluoromethyl)phenyl]-1-piperidyl]-2-[4-(2-pyrazinyl)-1-piperazinyl]-1-ethanone] | 152 to 153
5 | O=C(CN1CCN(c2cnccn2)CC1)N1CCC(CO)(c2cccc(C(F)(F)F)c2)CC1 [Compound No. 32, 1-[4-(Hydroxymethyl)-4-[3-(trifluoromethyl)phenyl]-1-piperidyl]-2-[4-(2-pyrazinyl)-1-piperazinyl]-1-ethanone] | 223
6 | CN(C)CC1(c2cccc(C(F)(F)F)c2)CCN(C(=O)CN2CCN(c3cnccn3)CC2)CC1 [Compound No. 33, 1-[4-[(Dimethylamino)methyl]-4-[3-(trifluoromethyl)phenyl]-1-piperidyl]-2-[4-(2-pyrazinyl)-1-piperazinyl]-1-ethanone] | 118
7 | CNCC1(c2cccc(C(F)(F)F)c2)CCN(C(=O)CN2CCN(c3cnccn3)CC2)CC1 [Compound No. 57, 1-[4-[(Methylamino)methyl]-4-[3-(trifluoromethyl)phenyl]-1-piperidyl]-2-[4-(2-pyrazinyl)-1-piperazinyl]-1-ethanone] | 137 to 139
8 | NCC1(c2cccc(Cl)c2)CCN(C(=O)CN2CCN(c3cnccn3)CC2)CC1 [Compound No. 65, 1-[4-(Aminomethyl)-4-(3-chlorophenyl)-1-piperidyl]-2-[4-(2-pyrazinyl)-1-piperazinyl]-1-ethanone] | 138 to 139
